# Target: GAT1 (Homo sapiens, UniProt P30531)
# Assay type: cell-based
# Chain of GAT1 (P30531 whole entry): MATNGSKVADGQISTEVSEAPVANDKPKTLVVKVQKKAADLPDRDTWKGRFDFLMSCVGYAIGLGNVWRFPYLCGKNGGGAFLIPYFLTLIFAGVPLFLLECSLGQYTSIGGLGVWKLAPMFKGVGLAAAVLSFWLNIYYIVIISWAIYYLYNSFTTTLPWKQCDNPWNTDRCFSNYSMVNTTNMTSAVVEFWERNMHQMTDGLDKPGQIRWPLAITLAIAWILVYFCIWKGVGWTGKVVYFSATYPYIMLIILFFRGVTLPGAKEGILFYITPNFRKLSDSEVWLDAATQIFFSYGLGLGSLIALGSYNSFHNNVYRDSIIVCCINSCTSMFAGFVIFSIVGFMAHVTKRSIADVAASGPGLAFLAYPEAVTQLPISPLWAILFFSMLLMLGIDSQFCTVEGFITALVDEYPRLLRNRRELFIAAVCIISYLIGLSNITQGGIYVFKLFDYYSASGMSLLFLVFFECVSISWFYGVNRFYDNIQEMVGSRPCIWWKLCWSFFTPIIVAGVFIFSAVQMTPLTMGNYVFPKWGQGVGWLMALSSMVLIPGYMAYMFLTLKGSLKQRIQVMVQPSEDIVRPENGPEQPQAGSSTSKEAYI
structure (smiles),measurement,value
"O=C(O)C1=CCCN(CCON=C(c2ccccc2)c2ccccc2)C1 [NO-711, 1-[2-[[(diphenylmethylene)imino]oxy]ethyl]-1,2,5,6-tetrahydro-3-pyridinecarboxylic acid]",Ki,78 ± 12 nM

# Reference: article PMC2764797 (Neurochemistry international, 2009)
